Measured values from US9029147B2, “Methods and compositions for enhanced differentiation from embryonic stem cells” (Massachusetts Institute of Technology, priority 2007, dated 2015).
Values joined by “and” are separate entries in the source; they are usually repeats but may differ in a detail not shown here. Identical values can stand only once.

How the values were obtained:
Assay type in all cases: cell-based, mouse
J1 mES cells = experiment: Fraction of MF-20 positive cells (cardiomyocytes) by flow cytometry, alternate differentiation protocol
Excerpt: (§1) • Undifferentiated ES cell culture. J1 and R1 ES cells were obtained from ATCC (SCRC 1010, SCRC 1036, Manassaas, Va.), expanded on Mitomycin-C treated MEF cells, and frozen into vials following ATCC protocols. Vials were thawed into undifferentiated ES cell maintenance medium (described in Table 1) containing supplemental leukaemia inhibitory factor (LIF) and plated at a density of about 5×10^4 cell/cm^2 on 25 cm^2 cell culture flasks (353109, Becton Dickinson, Franklin Lakes, N.J.) that were treated for 30 min with a sterile 0.1% (w/v) solution of gelatine (G-2500, Sigma-Aldrich, St. Louis, Mo.) in tissue culture water (WFI, 25-055-CM, Mediatech, Herndon, Va.). Medium (Table 1) was exchanged daily, and cells were detached with 0.25% trypsin (30-2101, ATCC) every two days. Split fractions were chosen so that cells were plated at approximately 1.2^[…] cells/cm^2. Cells were used for differentiation experiments 4-6 days after thawing the cell vials. • EB formation. […] The concentration of cells with intact membranes was determined using trypan blue cell counts, and cells were diluted to a concentration of 2.5×10^4 membrane-intact cells/ml. […] of this cell suspension were aliquoted onto the inside surface of the lids of 10×10 cm Petri dishes (351112, Becton Dickinson) using an 8-channel pipette. The lids were inverted and placed onto the bottoms of the dishes, which were filled with 15 ml of a pre-warmed (37° C.) solution containing 75% (v/v) Dulbecco's phosphate buffered saline (DPBS, 21-030-CM, Mediatech), 25% water, and 0.002% (w/v) gelatine. • EB transfer. […], the resulting EBs were manually pipetted off of the Petri dish lid using wide-orifice pipette tips (3532, Molecular BioProducts, San Diego, Calif.) and placed into the wells of custom-made 24-well culture dish, which had the plastic bottom replaced with fibronectin-coated silicone rubber membrane. 30 EBs were placed into each well, and the medium was mixed by pipetting to distribute the EBs uniformly across the plate bottom. • Culture of attached EBs. The EBs attached and spread within one day of transfer to the silicone rubber membrane-based dish. The medium was removed from all of the wells 2 days after EB transfer and was replaced with 1 ml of fresh ES cell differentiation medium. On the following day, the medium was removed and replaced with 1 ml serum-free differentiation medium (Table 2). Medium continued to be exchanged daily with the serum-free differentiation medium until the end of the experiment. • Cell collection for nuclei counting and flow cytometry. […]

R1 ES cells = experiment: as above; details: With 0.2 mM ascorbic acid
Excerpt: as §1

mES cells [1] = experiment: Cardiomyocyte generation with 0 or 0.2 mM ascorbic acid, MF-20 immunostaining counted by flow cytometer; details: 10 days
Protocol: Low Oxygen and Ascorbic Acid Act Synergistically to Promote Cardiomyocyte Generation. mES cells were differentiated for 10 days at 142, 36, and 7 mmHg pO2 and with either 0 or 0.2 mM ascorbic acid. Cardiomyocyte generation was measured by counting fixed cells immunostained for sacromeric myosin heavy chain using the MF-20 with a flow cytometer. […] (FIGS. 10 and 11.).

mES cells [2] = experiment: Adhesion of mES cells to polystyrene and silicone rubber, native or with adsorbed gelatin or fibronectin; details: after a day in culture
Protocol: FIG. 23. Adhesion of ES cells to polystyrene and silicone rubber. Adhesion of mES cells to polystyrene and silicone rubber in their native states or with 0.1% gelatin in water or […] fibronectin in PBS adsorbed onto the surface for 24 hr prior to cell addition. Below each pair of micrographs is quantitative data for the total, attached, and suspension cell numbers. Results shown are mean±SD for three wells in a 24 well plate seeded with 2×10^5 cell 26 hr prior to performing the cell counts.
PSS solution (polyanion) was added to an untreated plate and incubated for 1 hr, followed by a 10 min wash with DPBS, a 1 hr incubation with PEI (polycation), and a 10 min wash with DPBS. Two additional incubations with both PSS and PEI (30 min each) with intervening washes (10 min) were done to build a (PSS-PEI)3 PEM. To this PEM an additional 3 layers each of type B gelatin (polyanion) and PDL (polycation) were formed, using 30 min incubations with the polyelectrolyte solution, and 10 min washes with DPBS. The final PEM structure was thus (PSS-PEI)3-(type B gelatin—PDL)3. […] Attached nuclei were counted by adding 0.5 ml of lysis solution to the well and incubating for 10 min. […] The membrane-intact cell concentration was determined using trypan blue cell counts, and cells were diluted to a concentration of 25,000 membrane intact cells/ml. […]

Question: Which “Fraction of MF-20 positive cells” value (J1 mES cells; With 0.2 mM ascorbic acid, pO2gas 36, J1, 4 days hanging drop EBs then 7 days serum free ITS medium) does the source give for `O=C1O[C@H]([C@@H](O)CO)C(O)=C1O` [Ascorbic Acid, L-ascorbic acid] here?
Answer: 18 and 25 and 16

Question: What about the “Change in fraction of cardiomyocytes when ascorbic acid was included in the culture medium” value (J1 mES cells; all of the oxygen conditions tested, P=0.0005, J1 and R1 experiments of Table 4) of the same molecule?
Answer: highly significant increase

Question: What about the “Fraction of MF-20 positive cells” value (R1 ES cells; pO2gas 7, 4 days hanging drop EBs then 7 days serum free ITS medium) of the same molecule?
Answer: 4

Question: And the “Fraction of MF-20 positive cells” value (R1 ES cells; pO2gas 36, 4 days hanging drop EBs then 7 days serum free ITS medium)?
Answer: 22

Question: And the “Effect on cardiomyocyte generation in combination with low pO2” value (mES cells [1]; 0.2 mM combined with 36 mmHg pO2)?
Answer: a larger increase in cardiomyocytes than with either method alone

Question: What about the “Effect on cardiomyocyte generation” value (mES cells [1]; 0.2 mM vs 0 mM, at all pO2 (142, 36, 7 mmHg)) of the same molecule?
Answer: increased cardiomyocyte generation

Question: Which “Fraction of cells attached” value (mES cells [2]) does the source give for “fibronectin: protein adsorbed onto silicone rubber to promote cell adhesion (F1141, Sigma-Aldrich)” here?
Answer: 99%
